Test results: US20030013660A1, “Dioxolane analogs for improved inter-cellular delivery” (Shire BioChem Inc., priority 2000, published 2003)
Like-named read-outs stand apart in the source and are kept apart here.

Tests used:
Test in all cases: 3H-TdR (3H-thymidine) incorporation assay at 72 hr
CEM/dCK- = assay type: cell-based; conditions: for IC50: Homo sapiens, CCRF-CEM; for Factor* (Resistance Factor = Ratio of dCK- on Wild-type CCRF-CEM): ratio of IC50 CEM/dCK- to CCRF-CEM, 24 h
Protocol: (§1) Table of IC50 Values (μM) for Controls
(§2) Exposition of 24 hr to drug, wash, incubated for another 48 hr (total of 72 hr assay)
(§3) (3H-Thymidine Incorporation Assay)

CCRF-CEM = assay type: cell-based; conditions: Homo sapiens, CCRF-CEM
Protocol: as §1, §2, §3

H-460 = assay type: cell-based, Human; conditions: Homo sapiens
MCF-7 = assay type: cell-based, Human; conditions: Homo sapiens
SF-268 = assay type: cell-based, Human; conditions: Homo sapiens
[1] = read-out: IC50 CEM/dCK- 24 h, 24 h drug exposure, wash, another 48 hr, deoxycytidine kinase-deficient CCRF-CEM
[2] = read-out: IC50 CCRF-CEM 24 h, 24 h drug exposure, wash, another 48 hr, 3H-TdR incorporation at 72 hr
[3] = NCI-H460, read-out: IC50 H-460 24 h, 24 h drug exposure, wash, another 48 hr, 3H-TdR incorporation at 72 hr
[4] = MCF7, read-out: IC50 MCF-7 24 h, 24 h drug exposure, wash, another 48 hr, 3H-TdR incorporation at 72 hr
[5] = SF-268, read-out: IC50 SF-268 24 h, 24 h drug exposure, wash, another 48 hr, 3H-TdR incorporation at 72 hr

Structure (SMILES)	IC50 (CEM/dCK-; [1])	Factor* (Resistance Factor = Ratio of dCK- on Wild-type CCRF-CEM) (CEM/dCK-)	IC50 (CCRF-CEM; [2])	IC50 (H-460; [3])	IC50 (MCF-7; [4])	IC50 (SF-268; [5])	IC50 (CEM/dCK-; read-out: IC50 CEM/dCK- 24 h)	IC50 (CCRF-CEM; read-out: IC50 CCRF-CEM 24 h)	IC50 (H-460; NCI-H460, read-out: IC50 H-460 24 h)	IC50 (MCF-7; MCF7, read-out: IC50 MCF-7 24 h)	IC50 (SF-268; SF-268, read-out: IC50 SF-268 24 h)	IC50 (H-460; NCI-H460, read-out: IC50 H-460 (72 h), 72 h exposure, 3H-TdR incorporation at 72 hr)	IC50 (MCF-7; MCF7, read-out: IC50 MCF-7 (72 h), 72 h exposure, 3H-TdR incorporation at 72 hr)	IC50 (SF-268; SF-268, read-out: IC50 SF-268 (72 h), 72 h exposure, 3H-TdR incorporation at 72 hr)
CC(C(=O)OC[C@H]1OC[C@@H](n2ccc(/N=C/N(C)C)nc2=O)O1)c1ccccc1 (stereo partly drawn) [Compound 70, (2S,4S)-2-(2″- METHYLPHENYLACETOXY)MET HYL-4-(4′-N,N- DIMETHYLAMINOMETHYLENE- CYTOSIN-1′-YL)-1,3- DIOXOLANE]	30000 nM	3,409	8.8 nM	36 nM	47 nM	270 nM								
O=c1nc(NC2Sc3ccccc3S2)ccn1[C@@H]1CO[C@H](CO)O1 [Compound 136, 4-(BENZO[1,3]DITHIOL-2- YLAMINO)-1-(2- HYDROXYMETHYL- [1,3]DIOXOLAN-4-YL)- 1H!PYRIMIDIN-2-ONE]	> 100000 nM	>25	4000 nM	9000 nM	12000 nM	3000 nM								
COCCOCOC[C@H]1OC[C@@H](n2ccc(N)nc2=O)O1 [Compound 62, 4-AMINO-1-[2-(2- METHOXY- ETHOXYMETHOXYMETHYL)- [1,3]DIOXOLAN-4-YL]-1H- PYRIMIDIN-2-ONE]	> 100000 nM	288	350 nM	890 nM	1700 nM	4300 nM								
COc1ccc(OC(=O)Nc2ccn([C@@H]3CO[C@H](CO)O3)c(=O)n2)cc1 [Compound 73, [1-(2-HYDROXYMETHYL- [1,3]DIOXOLAN-4-YL)-2- OXO-1,2-DIHYDRO- […]-4-YL]- CARBAMIC ACID 4- METHOXY-PHENYL ESTER]		990					99000 nM	100 nM	270 nM	260 nM	30 nM			
CC(C)C(=O)OC[C@H]1OC[C@@H](n2ccc(N)nc2=O)O1 [Compound 275, ISOBUTYRIC ACID 4-(4- AMINO-2-OXO-2H- PYRIMIDIN-1-YL)- [1,3]DIOXOLAN-2-YL METHYL ESTER]	51600 nM	9,214	5.6 nM									1.2 nM	4.4 nM	13 nM
CCCCCCOC(=O)OC[C@H]1OC[C@@H](n2ccc(NC(=O)OCc3ccccc3)nc2=O)O1 [Compound 122, CARBONIC ACID 4-(4- BENZYLOXYCARBONYLAMINO- 2-OXO-2H-PYRIMIDIN-1- YL)-[1,3]DIOXOLAN-2- YLMETHYL ESTER HEXYL ESTER]	61000 nM	86	710 nM	1900 nM	210 nM	570 nM								
Nc1ccn([C@@H]2CO[C@H](COC(=S)Oc3ccccc3)O2)c(=O)n1 [Compound 147, THIOCARBONIC ACID O- [4(S)-(4′-AMINO-2′-OXO- 2H-PYRIMIDIN-1′-YL)- [1,3]DIOXOLAN-2(S)- YLMETHYL] ESTER O- PHENYL ESTER]	> 100000 nM	>4000	25 nM	60 nM	110 nM	17 nM								
CC(C)(C)OC(=O)N(CCCCC(C)(C)C(=O)Nc1ccn([C@@H]2CO[C@H](CO)O2)c(=O)n1)Cc1ccccc1 [Compound 125, Benzyl-{5-[1-(2-hydroxymethyl-[1,3]dioxolan-4-yl)-2-oxo-1,2-dihydro-pyrimidin-4-ylcarbamoyl]-5-methyl-hexyl}-carbamic acid tert-butyl ester]	7000 nM	97	72 nM	240 nM	16 nM	600 nM								
CCCCCCNC(=O)Nc1ccn([C@@H]2CO[C@H](CO)O2)c(=O)n1 [Compound 120, 1-HEXYL-3-[1-(2- HYDROXYMETHYL- [1,3]DIOXOLAN-4-YL)-2- OXO-1,2-DIHYDRO- PYRIMIDIN-4-YL]-UREA]	> 100000 nM		> 100000 nM	> 100000 nM	64000 nM	> 100000 nM								
CC(C)(C)C(=O)OCOC[C@H]1OC[C@@H](n2ccc(N)nc2=O)O1 [Compound 58, 2,2-DIMETHYL-PROPIONIC ACID 4-(4-AMINO-2-OXO- 2H-PYRIMIDIN-1-YL)- [1,3]DIOXOLAN-2- YLMETHOXYMETHYL ESTER]	38000 nM	2,714	14 nM	12 nM	16 nM	130 nM								
CC(C)OC(=O)OCOC[C@H]1OC[C@@H](n2ccc(N)nc2=O)O1.O=C(O)C(F)(F)F [Compound 68, CARBONIC ACID 4-(4- AMINO-2-OXO-2H- PYRIMIDIN-1-YL)- [1,3]DIOXOLAN-2- YLMETHOXYMETHYL ESTER ISOPROPYL ESTER TRIFLUOROACETIC ACID SALT]	> 100000 nM	3,333	30 nM	19 nM	76 nM	210 nM								
CC(C)c1ccc(NC(=O)OC[C@H]2OC[C@@H](n3ccc(NC(=O)OCc4ccccc4)nc3=O)O2)cc1 [Compound 124, {1-[2-(4-ISOPROPYL- PHENYLCARBAMOYLOXYMETHY L)-[1,3]DIOXOLAN-4-YL]- 2-OXO-1,2-DIHYDRO- PYRIMIDIN-4-YL}- CARBAMIC ACID BENZYL ESTER]	27000 nM	˜2	14000 nM	13000 nM	14000 nM	49000 nM								
CCOC(C)OC[C@H]1OC[C@@H](n2ccc(N)nc2=O)O1 (stereo in doubt) [Compound 91, 4-AMINO-1-[2-(1-ETHOXY- ETHOXYMETHYL)- [1,3]DIOXOLAN-4-YL]-1H- PYRIMIDIN-2-ONE]	> 100000 nM	36	2800 nM	630 nM	1800 nM	5500 nM								
CN(C)/C=N/c1ccn([C@@H]2CO[C@H](COC(=O)CC34CC5CC(CC(C5)C3)C4)O2)c(=O)n1 [Compound 129, (2S,4S)-2-(1″- ADMANTANEACETOXY)METHYL -4-(4′-N,N- DIMETHYLAMINOMETHYLENE- CYTOSIN-1′-YL)-1,3- DIOXOLANE]	15000 nM	208	72 nM	150 nM	20 nM	200 nM								
COC(=O)CCCC(=O)OC[C@H]1OC[C@@H](n2ccc(N)nc2=O)O1 [Compound 82, PENTANEDIOIC ACID 4-(4- AMINO-2-OXO-2#H!- PYRIMIDIN-1-YL)- [1,3]DIOXOLAN-2- YLMETHYL ESTER METHYL ESTER]	> 100000 nM	1,887	53 nM	170 nM	120 nM	300 nM								
COC1(OC[C@H]2OC[C@@H](n3ccc(N)nc3=O)O2)CCCCC1 [Compound 113, 4-AMINO-1-[2-(1- METHOXY- CYCLOHEXYLOXYMETHYL)- [1,3]DIOXOLAN-4-YL]-1H- PYRIMIDIN-2-ONE]	> 100000 nM	>1667	60 nM	240 nM	480 nM	1100 nM								
